The source made the active and inactive calls.
Tests used:
CHO = CHO cell viability loss, potency – luminescence, cytotoxicity control for TLR9-MyD88 binding inhibitor project, dose response (AID 588339); type: functional, cell-based, hamster; conditions: Cricetulus griseus;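 further: CHO cells stably coexpressing TLR9 and MyD88 fusions from primary screen; compound exposure lasted 48 hours before viability readout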
cells = type: functional, cell-based; conditions: HEK-CNG
[1] = reduction of Shn3 3'UTR-driven luciferase in osteoblasts – cell-based, Clone20 osteoblasts, firefly luciferase, cherry-picked, dose response (AID 624132); type: functional;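 further: firefly luciferase luminescence from reporter carrying the Shn3 3'UTR in osteoblasts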
[2] = biological target: T1, Microphthalmia-associated transcription factor (Homo sapiens, UniProt O75030); experiment: reducers of TRPM1 reporter luminescence, concentration series – cell-based, SK-MEL-5, cherry-picked, set 3, MITF inhibitor project, dose response (AID 493073); type: functional;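 further: SK-MEL-5 melanoma cells with luciferase driven by the MITF target TRPM1 promoter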
T1 sequence (O75030 whole entry): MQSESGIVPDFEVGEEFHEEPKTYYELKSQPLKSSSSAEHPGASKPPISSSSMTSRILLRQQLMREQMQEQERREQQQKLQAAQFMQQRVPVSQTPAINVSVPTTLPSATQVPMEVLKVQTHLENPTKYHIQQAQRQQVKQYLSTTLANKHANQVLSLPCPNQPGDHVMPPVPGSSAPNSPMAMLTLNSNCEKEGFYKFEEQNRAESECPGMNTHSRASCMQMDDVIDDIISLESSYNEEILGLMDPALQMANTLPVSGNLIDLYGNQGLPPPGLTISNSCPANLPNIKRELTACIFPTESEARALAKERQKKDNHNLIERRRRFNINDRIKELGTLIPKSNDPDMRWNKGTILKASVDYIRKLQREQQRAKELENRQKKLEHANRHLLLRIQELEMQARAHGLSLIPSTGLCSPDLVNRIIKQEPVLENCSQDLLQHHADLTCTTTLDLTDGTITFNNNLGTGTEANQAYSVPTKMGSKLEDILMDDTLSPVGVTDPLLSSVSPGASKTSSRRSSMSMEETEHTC

Beta Lactamase [3] = biological target: T2, Beta Lactamase (Pseudomonas aeruginosa, UniProt Q932Y6); experiment: BLA reporter interference, concentration series – BLA reporter cells, FRET fluorescence, artefact control for NOD2-RIPK2 interaction inhibitor project, dose response (AID 651552); type: functional, cell-based
Galanin receptor type 3 = biological target: T3, Galanin receptor type 3 (Homo sapiens, UniProt O60755); experiment: Fluorescence-based cell-based primary high throughput dose response assay to identify antagonists of the Galanin Receptor 3 (GalR3).; type: functional
T3 sequence (O60755 whole entry): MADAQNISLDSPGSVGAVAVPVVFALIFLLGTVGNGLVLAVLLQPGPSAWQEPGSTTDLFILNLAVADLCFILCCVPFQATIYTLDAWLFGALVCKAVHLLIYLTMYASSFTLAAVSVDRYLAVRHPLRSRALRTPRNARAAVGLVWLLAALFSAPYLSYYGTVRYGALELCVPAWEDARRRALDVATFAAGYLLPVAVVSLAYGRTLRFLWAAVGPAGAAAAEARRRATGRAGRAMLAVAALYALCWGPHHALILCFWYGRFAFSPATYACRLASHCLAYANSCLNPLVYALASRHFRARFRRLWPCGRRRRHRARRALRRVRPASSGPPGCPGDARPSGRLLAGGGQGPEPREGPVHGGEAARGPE

[4] = loss of viability in HepG2 cells – cell-based, CellTiter-Glo, cherry-picked, cytotoxicity control for Shn3 inhibitor project, dose response (AID 624134); type: functional
[5] = non-specific 3'UTR reporter inhibition in Clone20-Shn3RL – cell-based, Renilla luciferase, cherry-picked, counter-screen for Shn3 inhibitor project, dose response (AID 624133); type: functional
[6] = Fluorescence-based cell-based high throughput dose response assay for inhibitors of the interaction of nucleotide-binding oligomerization domain containing 2 (NOD2) and the receptor-interacting serine-threonine kinase 2 (RIPK2).; type: functional; conditions: Homo sapiens
[7] = biological target: DNA damage-inducible transcript 3 protein (Mus musculus, UniProt P35639); type: functional, Cricetulus griseus
Beta Lactamase [8] = biological target: T2, Beta Lactamase; experiment: BLA reporter interference, concentration series – BLA reporter cells, FRET fluorescence, artefact control for TLR9-MyD88 binding inhibitor project, dose response (AID 588341); type: cell-based;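 further: cell based assay in CHO-K1 cells stably expressing beta-lactamase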
INS1 = experiment: INS-1E survival protection against cytokine death – cell-based, luminescence, retest, dose response (AID 449756); type: functional; conditions: Rattus norvegicus;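 further: cell death triggered by IL-1 beta plus TNF-alpha plus IFN-gamma mixture; protective hits raise ATP signal compared with cytokine alone wells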
Galanin receptor type 2 = Galanin receptor type 2 (Homo sapiens, UniProt O43603); experiment: Dose Response cell-based high-throughput screening assay to identify antagonists of galanin receptor 2 (GALR2). [Related pubchem assays: 828, 866 ]; type: functional
Ion channel NompC = Ion channel NompC (Danio rerio, UniProt Q7T1G6); experiment: Dose response cell-based high-throughput screening assay for agonists of the transient receptor potential channel N1 (TRPN1). [Related pubchem assays (depositor defined):AID1424, AID1448]; type: functional
Mucolipin-3 = biological target: T4, Mucolipin-3 (Homo sapiens, UniProt Q8TDD5); experiment: Fluorescence counterscreen assay for […] agonists: dose response cell-based high-throughput screening assay to identify agonists of the transient receptor potential channel ML3 (TRPML3). [Related pubchem assays: 1424, 1448 ]; type: functional
T4 sequence (Q8TDD5 whole entry): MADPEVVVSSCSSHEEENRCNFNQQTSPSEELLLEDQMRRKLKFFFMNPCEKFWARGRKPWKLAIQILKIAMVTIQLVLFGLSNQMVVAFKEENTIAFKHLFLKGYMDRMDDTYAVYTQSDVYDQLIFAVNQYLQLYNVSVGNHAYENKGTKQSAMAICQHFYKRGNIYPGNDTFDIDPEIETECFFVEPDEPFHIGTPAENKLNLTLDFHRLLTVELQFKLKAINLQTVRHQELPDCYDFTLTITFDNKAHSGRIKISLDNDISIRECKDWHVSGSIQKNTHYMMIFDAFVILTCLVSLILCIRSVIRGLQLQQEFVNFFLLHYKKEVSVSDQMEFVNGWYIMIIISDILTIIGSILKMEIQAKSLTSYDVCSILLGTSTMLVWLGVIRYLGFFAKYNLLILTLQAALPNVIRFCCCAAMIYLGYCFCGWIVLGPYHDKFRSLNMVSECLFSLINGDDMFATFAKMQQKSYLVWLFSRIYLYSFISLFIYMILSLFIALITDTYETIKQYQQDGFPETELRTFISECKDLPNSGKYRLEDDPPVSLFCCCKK

T2 sequence (Q932Y6 whole entry): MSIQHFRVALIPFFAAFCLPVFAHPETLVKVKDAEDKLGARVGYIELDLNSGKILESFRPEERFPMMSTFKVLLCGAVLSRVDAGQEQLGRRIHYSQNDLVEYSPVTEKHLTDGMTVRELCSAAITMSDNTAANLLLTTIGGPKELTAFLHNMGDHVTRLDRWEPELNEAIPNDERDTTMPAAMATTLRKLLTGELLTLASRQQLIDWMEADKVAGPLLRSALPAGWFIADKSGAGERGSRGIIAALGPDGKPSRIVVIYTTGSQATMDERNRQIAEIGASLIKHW
Ion channel NompC, sequence (Q7T1G6 whole entry): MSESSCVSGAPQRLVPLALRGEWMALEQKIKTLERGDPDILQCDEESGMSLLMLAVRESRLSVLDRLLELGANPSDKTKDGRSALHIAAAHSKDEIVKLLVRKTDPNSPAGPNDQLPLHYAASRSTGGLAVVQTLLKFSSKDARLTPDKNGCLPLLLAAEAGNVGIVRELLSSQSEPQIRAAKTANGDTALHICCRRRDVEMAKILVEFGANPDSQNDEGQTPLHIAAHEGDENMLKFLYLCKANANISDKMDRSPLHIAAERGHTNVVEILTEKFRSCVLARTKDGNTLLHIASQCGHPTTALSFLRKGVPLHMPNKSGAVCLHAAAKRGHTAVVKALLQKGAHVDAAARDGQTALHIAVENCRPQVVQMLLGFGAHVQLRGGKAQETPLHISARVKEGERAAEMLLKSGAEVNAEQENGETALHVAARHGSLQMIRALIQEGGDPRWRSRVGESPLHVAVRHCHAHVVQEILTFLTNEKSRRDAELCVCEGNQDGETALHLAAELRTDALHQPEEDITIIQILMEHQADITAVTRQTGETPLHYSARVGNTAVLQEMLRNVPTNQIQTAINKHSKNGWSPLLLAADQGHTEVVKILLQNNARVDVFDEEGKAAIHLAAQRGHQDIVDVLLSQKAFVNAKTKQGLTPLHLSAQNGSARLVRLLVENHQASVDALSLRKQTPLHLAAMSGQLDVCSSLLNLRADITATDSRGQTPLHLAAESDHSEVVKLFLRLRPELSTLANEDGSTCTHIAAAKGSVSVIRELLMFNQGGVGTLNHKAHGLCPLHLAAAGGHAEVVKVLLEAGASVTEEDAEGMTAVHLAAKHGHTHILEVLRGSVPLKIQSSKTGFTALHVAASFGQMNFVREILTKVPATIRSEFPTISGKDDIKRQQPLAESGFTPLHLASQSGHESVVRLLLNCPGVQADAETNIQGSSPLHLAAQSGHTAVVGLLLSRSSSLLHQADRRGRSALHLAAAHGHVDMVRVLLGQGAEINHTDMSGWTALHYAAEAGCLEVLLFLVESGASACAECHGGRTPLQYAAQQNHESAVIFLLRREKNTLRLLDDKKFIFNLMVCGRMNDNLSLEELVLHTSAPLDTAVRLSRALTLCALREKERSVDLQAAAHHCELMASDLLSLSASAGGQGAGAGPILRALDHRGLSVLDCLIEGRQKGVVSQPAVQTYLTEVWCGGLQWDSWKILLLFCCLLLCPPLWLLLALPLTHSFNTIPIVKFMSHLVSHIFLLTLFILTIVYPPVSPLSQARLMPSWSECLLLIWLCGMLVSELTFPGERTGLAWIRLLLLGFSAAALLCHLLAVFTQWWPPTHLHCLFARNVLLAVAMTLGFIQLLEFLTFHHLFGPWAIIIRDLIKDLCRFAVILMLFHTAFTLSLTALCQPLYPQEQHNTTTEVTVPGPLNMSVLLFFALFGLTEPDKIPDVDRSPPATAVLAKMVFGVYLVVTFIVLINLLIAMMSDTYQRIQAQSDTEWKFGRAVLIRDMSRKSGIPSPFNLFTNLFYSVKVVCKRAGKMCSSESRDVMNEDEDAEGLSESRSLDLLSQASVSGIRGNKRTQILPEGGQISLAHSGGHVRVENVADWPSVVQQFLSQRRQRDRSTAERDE
DNA damage-inducible transcript 3 protein, sequence (P35639 whole entry): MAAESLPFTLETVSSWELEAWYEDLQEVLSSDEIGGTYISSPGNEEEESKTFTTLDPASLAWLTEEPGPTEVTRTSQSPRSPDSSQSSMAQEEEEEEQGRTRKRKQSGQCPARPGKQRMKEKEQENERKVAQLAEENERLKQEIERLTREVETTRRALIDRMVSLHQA
Galanin receptor type 2, sequence (O43603 whole entry): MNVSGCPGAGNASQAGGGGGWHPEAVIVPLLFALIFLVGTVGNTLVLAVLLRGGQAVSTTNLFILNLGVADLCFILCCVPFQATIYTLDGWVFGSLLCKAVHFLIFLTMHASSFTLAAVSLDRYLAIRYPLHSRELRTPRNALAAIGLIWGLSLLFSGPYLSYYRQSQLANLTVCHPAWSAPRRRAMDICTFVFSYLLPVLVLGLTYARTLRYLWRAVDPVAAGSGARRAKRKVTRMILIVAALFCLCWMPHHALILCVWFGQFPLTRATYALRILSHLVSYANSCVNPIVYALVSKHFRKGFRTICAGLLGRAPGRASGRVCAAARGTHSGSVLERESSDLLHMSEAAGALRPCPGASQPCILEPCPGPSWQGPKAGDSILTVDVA

## CS(=O)(=O)c1nc(-c2ccc(F)cc2)cc(C(F)(F)F)n1
CHO
  IC50: 3.27 µM (active)
cells
  EC50: > 29.9 µM (inactive)
[1]
  AC50: 2.72 µM (active)
[2]
  AC50: 7.2 µM (active)
Beta Lactamase [3]
  IC50: 17.7 µM (inactive)
Galanin receptor type 3
  IC50: > 29.9 µM (inactive)
[4]
  AC50: 24.5 µM (active)
[5]
  AC50: 7.39 µM (active)
[6]
  IC50: 2.79 µM (active)
[7]
  Absolute IC50 (CHOP): 10 µM
Beta Lactamase [8]
  IC50: 27.4 µM (inactive)

## C1=C(CCNc2[nH]cnc3c4ccccc4nc2-3)CCCC1
cells
  EC50: > 29.9 µM (inactive)
INS1
  AC50: 0.219 µM (active)
Galanin receptor type 2
  IC50: > 42 µM (not active)
Ion channel NompC
  EC50: > 29.9 µM (inactive)
Galanin receptor type 3
  IC50: 0.383 µM (active)
Mucolipin-3
  EC50: > 29.9 µM (not active)
